A word on the pEC50: it is the negative decadic logarithm of the EC50, by convention in mol/L.

pEC50: −log10 of the molar value.

In US11072598B2, “Somatostatin modulators and uses thereof” (CRINETICS PHARMACEUTICALS, INC., priority 2017, dated 2021) one finds EC50 data, which are given here for 24 compounds.

T1 sequence (P30874 whole entry): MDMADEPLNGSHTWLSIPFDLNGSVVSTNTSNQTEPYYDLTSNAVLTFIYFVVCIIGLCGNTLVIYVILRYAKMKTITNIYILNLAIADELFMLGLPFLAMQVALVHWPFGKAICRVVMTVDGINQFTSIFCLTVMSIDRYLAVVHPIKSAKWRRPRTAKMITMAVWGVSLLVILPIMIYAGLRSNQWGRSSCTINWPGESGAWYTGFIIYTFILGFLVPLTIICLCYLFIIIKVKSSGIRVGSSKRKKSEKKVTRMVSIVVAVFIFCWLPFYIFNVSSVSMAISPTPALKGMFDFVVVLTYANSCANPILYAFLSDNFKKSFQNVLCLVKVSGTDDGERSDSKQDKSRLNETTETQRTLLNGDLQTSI

This assay concerns the target T1, human somatostatin receptor subtype 2 (Homo sapiens, UniProt P30874).
T1 construct: expressed in transfected cells
Put plainly: cAMP functional assay for SSTR2 agonists. Type of assay: cell-based. The conditions noted are these: inhibition of cAMP activities via human SST2 receptor (SSTR2), CHO-K1 cells; read-out: EC50. The text has this:
General overview: All five SSTR subtypes are Gi coupled G-protein coupled receptors (GPCRs) that lead to decreases in intracellular cyclic AMP (cAMP) when activated by an agonist. Therefore, measurement of intracellular cAMP levels can be used to assess whether compounds of the invention are agonists of SSTR subtypes (John Kelly, Troy Stevens, W. Joseph Thompson, and Roland Seifert, Current Protocols in Pharmacology, 2005, 2.2.1-2.2). One example of an intracellular cAMP assay is described below. cAMP assay protocol:
Four days prior to the assay, 5,000 Chinese hamster ovary cells (CHO-K1, ATCC #CCL-61) stably expressing the human somatostatin receptor subtype 2 are plated in each well of a 96-well tissue culture-treated plate in Ham's F12 growth media (ThermoFisher #10-080-CM) supplemented with 10% donor bovine serum (Gemini Bio-Products #100-506), 100 U/mL penicillin; 100 ug/mL streptomycin; 2 mM L-glutamine (Gemini Bio-Products #400-110) and 0.2 mg/mL hygromycin B (GoldBio #31282-04-9). The cells are cultured at 37° C., 5% CO2 and 95% humidity. On the day of the assay, the media is aspirated and the cells are treated with 50 μL of 1.6 μM NKH477 (Sigma #N3290) plus various dilutions of compounds of the invention in assay buffer [1× Hank's Balanced Salt Solution (ThermoFisher #SH3058802), 0.5 mM HEPES pH 7.4, 0.1% bovine serum albumin, 0.2 mM 3-Isobutyl-1-methylxanthine (IBMX, VWR #200002-790)]. The cells are incubated for 20 minutes at 37° C. […] The cells are treated with 50 μL of lysis buffer (HRTF cAMP kit, Cisbio). The lysate is transferred to 384-well plates and cAMP detection and visualization antibodies are added and incubated for 1-24 hours at room temperature. The time-resolved fluorescent signal is read with a Tecan M1000Pro multiplate reader. The intracellular cAMP concentrations are calculated by regression to a standard curve and are plotted vs. the concentration of the compounds of the invention and the EC50 of the compounds are calculated using standard methods. All data manipluations are in GraphPad Prism v6.
`Cc1cc(C)cc(-c2cnc(N)c(C=NOC(C)(C)C)c2N2CCC(N)CC2)c1` [Compound 1-36]: the pEC50 was 7.00 to 8.00.
Then `Cc1cc(Cl)cc(-c2cnc(N)c(C=NOC(C)C)c2N2CCC(N)CC2)c1` [Compound 1-37], with over 8.00.
Then `Cc1cc(Cl)cc(-c2cnc(N)c(C=NOC(C)(C)C)c2N2CCC(N)CC2)c1` [Compound 1-38], with over 8.00.
In the case of `Cc1cc(Cl)cc(-c2cnc(N)c(C=NO)c2N2CCC(N)CC2)c1` [Compound 1-39, 4-(4-aminopiperidin-1-yl)-5-(3-chloro-5-methylphenyl)-3-[(hydroxyimino)methyl]pyridin-2-amine] it was under 7.00; in that of `CON=Cc1ccc2[nH]c(-c3c(N)ncc(-c4cc(C)cc(F)c4)c3N3CCC(N)CC3)nc2c1` [Compound 1-40, 4-(4-aminopiperidin-1-yl)-5-(3-fluoro-5-methylphenyl)-3-{5-[(methoxyimino)methyl]-1H-1,3-benzodiazol-2-yl}pyridin-2-amine], over 8.00; in that of `CON=Cc1cccc2[nH]c(-c3c(N)ncc(-c4cc(C)cc(F)c4)c3N3CCC(N)CC3)nc12` [Compound 1-44, 4-(4-aminopiperidin-1-yl)-5-(3-fluoro-5-methylphenyl)-3-{4-[(methoxyimino)methyl]-1H-1,3-benzodiazol-2-yl}pyridin-2-amine], over 8.00.
Turning to `COC(=O)Nc1ccc2[nH]c(-c3c(N)ncc(-c4cc(C)cc(F)c4)c3N3CCC(N)CC3)nc2c1` [Compound 1-45, methyl N-{2-[2-amino-4-(4-aminopiperidin-1-yl)-5-(3-fluoro-5-methylphenyl)pyridin-3-yl]-1H-1,3-benzodiazol-5-yl}carbamate], the pEC50 is over 8.00.
Turning to `CONC(=O)Nc1ccc2[nH]c(-c3c(N)ncc(-c4cc(C)cc(F)c4)c3N3CCC(N)CC3)nc2c1` [Compound 1-46, 1-{2-[2-amino-4-(4-aminopiperidin-1-yl)-5-(3-fluoro-5-methylphenyl)pyridin-3-yl]-1H-1,3-benzodiazol-5-yl}-3-methoxyurea], the pEC50 was over 8.00.
Then `Cc1cc(F)cc(-c2cnc(N)c(-c3nc4cnccc4[nH]3)c2N2CCC(N)CC2)c1` [Compound 1-51, 4-(4-aminopiperidin-1-yl)-5-(3-fluoro-5-methylphenyl)-3-{1H-imidazo[4,5-c]pyridin-2-yl}pyridin-2-amine], with over 8.00; and `Cc1cc(F)cc(-c2cnc(N)c(-c3nc4ncccc4[nH]3)c2N2CCC(N)CC2)c1` [Compound 1-52, 4-(4-aminopiperidin-1-yl)-5-(3-fluoro-5-methylphenyl)-3-{1H-imidazo[4,5-b]pyridin-2-yl}pyridin-2-amine], with over 8.00.
Turning to `Cc1cc(F)cc(-c2cnc(N)c(-c3nc4cc(S(C)(=O)=O)ccc4[nH]3)c2N2CCC(N)CC2)c1` [Compound 1-53, 4-(4-aminopiperidin-1-yl)-5-(3-fluoro-5-methylphenyl)-3-(5-methanesulfonyl-1H-1,3-benzodiazol-2-yl)pyridin-2-amine], the pEC50 was over 8.00.
In the case of `Cc1cc(F)cc(-c2cnc(N)c(-c3nc4c(F)cc(OCC#N)cc4[nH]3)c2N2CCC(N)CC2)c1` [Compound 1-60, 2-({2-[2-amino-4-(4-aminopiperidin-1-yl)-5-(3-fluoro-5-methylphenyl)pyridin-3-yl]-4-fluoro-1H-1,3-benzodiazol-6-yl}oxy)acetonitrile] it was over 8.00; in that of `CON=Cc1cc(F)c2[nH]c(-c3c(N)ncc(-c4cc(C)cc(F)c4)c3N3CCC(N)CC3)nc2c1` [Compound 1-61, 4-(4-aminopiperidin-1-yl)-5-(3-fluoro-5-methylphenyl)-3-{7-fluoro-5-[(methoxyimino)methyl]-1H-1,3-benzodiazol-2-yl}pyridin-2-amine], over 8.00; in that of `C#Cc1ccc2[nH]c(-c3c(N)ncc(-c4cc(C)cc(F)c4)c3N3CCC(N)CC3)nc2c1` [Compound 1-65, 4-(4-aminopiperidin-1-yl)-3-(5-ethynyl-1H-1,3-benzodiazol-2-yl)-5-(3-fluoro-5-methylphenyl)pyridin-2-amine], over 8.00.
Then `C#Cc1cc(F)c2[nH]c(-c3c(N)ncc(-c4cc(C)cc(F)c4)c3N3CCC(N)CC3)nc2c1` [Compound 1-66, 4-(4-aminopiperidin-1-yl)-3-(5-ethynyl-7-fluoro-1H-1,3-benzodiazol-2-yl)-5-(3-fluoro-5-methylphenyl)pyridin-2-amine], with over 8.00; and `COc1cc(F)cc(-c2cnc(N)c(-c3nc4cc(F)cc(F)c4[nH]3)c2N2CCC(N)CC2)c1` [Compound 1-67, 4-(4-aminopiperidin-1-yl)-3-(5,7-difluoro-1H-1,3-benzodiazol-2-yl)-5-(3-fluoro-5-methoxyphenyl)pyridin-2-amine], with over 8.00; and `Cc1cc(F)cc(-c2cnc(N)c(-c3nc4cc(C#N)cc(F)c4[nH]3)c2N2CCC(N)CC2)c1` [Compound 1-69, 2-[2-amino-4-(4-aminopiperidin-1-yl)-5-(3-fluoro-5-methylphenyl)pyridin-3-yl]-7-fluoro-1H-1,3-benzodiazole-5-carbonitrile], with over 8.00.
In the case of `CNc1ncc(-c2cc(C)cc(F)c2)c(N2CCC(N)CC2)c1-c1nc2ccc(C#N)cc2[nH]1` [Compound 1-70, 2-[4-(4-aminopiperidin-1-yl)-5-(3-fluoro-5-methylphenyl)-2-(methylamino)pyridin-3-yl]-1H-1,3-benzodiazole-6-carbonitrile] it was over 8.00; in that of `CNc1ncc(-c2cc(C)cc(F)c2)c(N2CCC(N)CC2)c1-c1nc2cccc(Cl)c2[nH]1` [Compound 1-72, 4-(4-aminopiperidin-1-yl)-3-(7-chloro-1H-1,3-benzodiazol-2-yl)-5-(3-fluoro-5-methylphenyl)-N-methylpyridin-2-amine], over 8.00; in that of `Cc1cc(F)cc(-c2cnc(N)c(-c3nc4cccc(Cl)c4[nH]3)c2N2CCC(N)CC2)c1` [Compound 1-73, 4-(4-aminopiperidin-1-yl)-3-(7-chloro-1H-1,3-benzodiazol-2-yl)-5-(3-fluoro-5-methylphenyl)pyridin-2-amine], over 8.00.
Regarding `CON=Cc1cc(OC)c2[nH]c(-c3c(N)ncc(-c4cc(C)cc(F)c4)c3N3CCC(N)CC3)nc2c1` [Compound 1-76, 4-(4-aminopiperidin-1-yl)-5-(3-fluoro-5-methylphenyl)-3-{7-methoxy-5-[(methoxyimino)methyl]-1H-1,3-benzodiazol-2-yl}pyridin-2-amine], the pEC50 was over 8.00.
In the case of `Nc1ncc(-c2cc(F)cc(Cl)c2)c(N2CCC(N)CC2)c1-c1nc2cc(F)cc(F)c2[nH]1` [Compound 1-77, 4-(4-aminopiperidin-1-yl)-5-(3-chloro-5-fluorophenyl)-3-(5,7-difluoro-1H-1,3-benzodiazol-2-yl)pyridin-2-amine] it was over 8.00; in that of `Cc1cc(C)cc(-c2cnc(N)c(-c3nc4cc(F)cc(F)c4[nH]3)c2N2CCC(N)CC2)c1` [Compound 1-78, 4-(4-aminopiperidin-1-yl)-3-(5,7-difluoro-1H-1,3-benzodiazol-2-yl)-5-(3,5-dimethylphenyl)pyridin-2-amine], over 8.00.
Then `Cc1cc(Cl)cc(-c2cnc(N)c(-c3nc4cc(F)cc(F)c4[nH]3)c2N2CCC(N)CC2)c1` [Compound 1-79, 4-(4-aminopiperidin-1-yl)-5-(3-chloro-5-methylphenyl)-3-(5,7-difluoro-1H-1,3-benzodiazol-2-yl)pyridin-2-amine], with over 8.00.
